We go through six compounds from publication PMC6479757, “Coralmycin Derivatives with Potent Anti-Gram Negative Activity Produced by the Myxobacteria Corallococcus coralloides M23” (Molecules, 2019).

Values after ≈ are worked out from the molar mass of the structure shown. Where two headings read alike, the source gives them in different places.

One assay has as its system Gram-negative pathogens. Conditions: compared with 12; cited from earlier work.
For the next assay, the system named is E. coli KCTC 1682. Briefly: Antibacterial susceptibility, broth microdilution MIC. The class given is cell-based. The settings on record: Escherichia coli. The procedure:
(§1) Whole-cell antimicrobial activities were determined using a broth microdilution method described previously. Most of the test strains were grown to mid-log phase in Mueller–Hinton broth and diluted 1,000-fold in the same medium. Cells (10^5/mL) were dispensed at 0.2 mL/well in 96-well microtiter plates. Streptococcus pneumonia and Acinetobacter baumanii were grown in Todd–Hewitt medium and nutrient broth, respectively. […]. Cells were treated with 0.05% DMSO as a vehicle control. The MICs were determined in triplicate by serial two-fold dilutions of the test compounds. […] Bacterial growth was determined by measuring the absorption at 650 nm using a microtiter enzyme-linked immunosorbent assay (ELISA) reader (Molecular Devices Corporation, Sunnyvale, CA, USA).

For assay [1], the system named is Pseudomonas aeruginosa KCTC 2004. The description is as above. The class given is cell-based. The settings on record: KCTC2004; Pseudomonas aeruginosa KCTC 2004; 24-h incubation at 37 °C. The protocol: as §1
A further assay has as its system E. coli CCARM 1356. The assay is described as above. The format is cell-based. Conditions: Escherichia coli, CCARM1356, 24-h incubation at 37 °C. The protocol:
as §1

Another assay deals with QRSA CCARM 3505. Described as above. The settings on record: Staphylococcus aureus, CCARM3505; QRSA CCARM 3505; 24-h incubation at 37 °C; read-out: MIC. The class given is cell-based. The procedure: as §1
Assay [2] deals with Klebsiella pneumoniae KCTC 22057. Described as above. Conditions: KCTC22057; Klebsiella pneumoniae KCTC 22057; 24-h incubation at 37 °C. The class given is cell-based. The protocol:
as §1

Assay [3] concerns Acinetobacter baumannii KCTC 2508. The assay is described as above. Conditions: KCTC2508, nutrient broth, 24-h incubation at 37 °C. The format is cell-based. The procedure: as §1
For the next assay, the system named is MRSA CCARM 3167. The assay is described as above. The class given is cell-based. The settings on record: Staphylococcus aureus, 24-h incubation at 37 °C. The protocol:
as §1

The test system of assay [4] is Enterococcus faecalis KCTC 5191. The description is as above. The class given is cell-based. The settings on record: KCTC5191, 24-h incubation at 37 °C. The protocol: as §1
For a further assay, the system named is MRSA CCARM 3506. Described as above. The format is cell-based. Conditions: Staphylococcus aureus, 24-h incubation at 37 °C. The procedure: as §1
Another assay relates to QRSA CCARM 3519. The assay is described as above. Conditions: Staphylococcus aureus, CCARM3519; QRSA CCARM 3519; 24-h incubation at 37 °C; read-out: MIC. The format is cell-based. The procedure:
as §1

The subject of assay [5] is Streptococcus pneumonia KCTC 5412. Described as above. The settings on record: Streptococcus pneumoniae, KCTC5412, Todd–Hewitt medium, 24-h incubation at 37 °C. The class given is cell-based. The protocol: as §1
A further assay deals with T1, E. coli DNA gyrase (Escherichia coli, UniProt P0AES4+P0AES6).
T1 construct: purchased TopoGEN TG2001G
The experiment in a line: DNA gyrase supercoiling assay. The class given is biochemical. The protocol:
The inhibitory activities of coralmycins on the supercoiling activity of DNA gyrase were investigated using a ‘Purified E. coli DNA Gyrase Drug Screening Kit’ (TopoGEN #TG2001G, Buena Vista, CO, USA). […] The reaction was terminated by the addition of 2 μL of 10% (w/v) SDS and 2 μL of 10× DNA gel loading dye (bromophenol blue). Then, 20 μL of chloroform:isoamyl alcohol (24:1 mixture) was added, and the mixture was vortexed and then centrifuged. The samples in the blue phase were run on 1% (w/v) agarose gel and were visualized using ethidium bromide. All reactions were performed in triplicate. To calculate the IC50 values, the band densities were measured using ImageJ (National Institutes of Health, Bethesda, Maryland, MD, USA).

The subject of assay [6] is Gram-negative and Gram-positive bacteria. Conditions: cited from earlier work.
The subject of assay [7] is Staphylococcus aureus RN 4220. Briefly: Antibacterial susceptibility, broth microdilution MIC. The format is cell-based. The settings on record: RN4220, 24 h. The protocol:
(§2) Whole-cell antimicrobial activities were determined using a broth microdilution method described previously. Most of the test strains were grown to mid-log phase in Mueller–Hinton broth and diluted 1,000-fold in the same medium. Cells (10^5/mL) were dispensed at 0.2 mL/well in 96-well microtiter plates. Streptococcus pneumonia and Acinetobacter baumanii were grown in Todd–Hewitt medium and nutrient broth, respectively. […] Cells were treated with 0.05% DMSO as a vehicle control. The MICs were determined in triplicate by serial two-fold dilutions of the test compounds. […] Bacterial growth was determined by measuring the absorption at 650 nm using a microtiter enzyme-linked immunosorbent assay (ELISA) reader (Molecular Devices Corporation, Sunnyvale, CA, USA).

For the next assay, the target named is DNA gyrase. The settings on record: read-out: IC50, DNA gyrase-inhibitory activity; cited from earlier work.
The next assay deals with Gram-negative bacteria. The experiment in a line: Antibacterial activity against Gram-negative bacteria. The format is cell-based. Conditions: at 32 μg/mL. The protocol:
as §2

The next assay relates to tested bacterial strains. The experiment in a line: Antibacterial activity against all tested strains. The format is cell-based. The settings on record: at 32 μg/mL. The protocol: as §2
The test system of assay [8] is Gram-negative pathogens as well as Gram-positive bacteria. On the set-up: method as in PMID 27598688. Conditions: compared with 11; cited from earlier work.
The mark [9] stands for this setting: KCTC1682, 24-h incubation at 37 °C, Table 6 and Table S1, read-out: MIC.
Setting [10] is: KCTC1682, Table 7, read-out: MIC, antibacterial activity on E. coli KCTC 1682.
Setting [11] is: relaxed plasmid, 37 °C for 30 min, agarose gel band densities, read-out: IC50, inhibition of the supercoiling activity of E. coli DNA gyrase.

T1 sequence (P0AES4 whole entry, one chain of several): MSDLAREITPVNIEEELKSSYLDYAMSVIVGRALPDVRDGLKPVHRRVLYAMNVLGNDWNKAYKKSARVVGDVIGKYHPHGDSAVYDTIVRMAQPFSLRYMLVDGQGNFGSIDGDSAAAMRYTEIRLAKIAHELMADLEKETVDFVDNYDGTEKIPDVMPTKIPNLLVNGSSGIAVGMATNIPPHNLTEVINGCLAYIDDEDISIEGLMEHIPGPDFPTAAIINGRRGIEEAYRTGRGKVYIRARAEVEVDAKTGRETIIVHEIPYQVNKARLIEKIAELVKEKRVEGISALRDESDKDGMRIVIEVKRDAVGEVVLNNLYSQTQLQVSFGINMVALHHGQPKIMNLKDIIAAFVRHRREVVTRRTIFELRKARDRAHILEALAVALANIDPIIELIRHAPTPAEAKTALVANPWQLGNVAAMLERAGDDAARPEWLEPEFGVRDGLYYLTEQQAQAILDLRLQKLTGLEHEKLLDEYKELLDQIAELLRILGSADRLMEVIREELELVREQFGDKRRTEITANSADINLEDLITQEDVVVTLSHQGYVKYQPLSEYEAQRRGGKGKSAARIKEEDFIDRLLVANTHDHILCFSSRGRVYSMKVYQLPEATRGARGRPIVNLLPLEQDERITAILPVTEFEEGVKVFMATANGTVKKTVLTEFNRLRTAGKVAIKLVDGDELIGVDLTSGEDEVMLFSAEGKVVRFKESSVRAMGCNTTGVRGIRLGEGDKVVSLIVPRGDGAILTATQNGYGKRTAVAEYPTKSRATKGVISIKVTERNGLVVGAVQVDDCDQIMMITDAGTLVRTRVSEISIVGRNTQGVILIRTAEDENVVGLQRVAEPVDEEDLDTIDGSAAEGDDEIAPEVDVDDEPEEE

Regarding `CO[C@@H](C(N)=O)[C@H](NC(=O)c1ccc(NC(=O)c2ccc([N+](=O)[O-])cc2)cc1)C(=O)Nc1ccc(C(=O)Nc2ccc(C(=O)Nc3ccc(C(=O)O)cc3)c(O)c2OC(C)C)cc1` [cystobactamid 861-2], the “antibacterial activity against Gram-negative pathogens relative to 12 (times higher)” value in the assay with Gram-negative pathogens was 4–10 times.
`CC(C)Oc1cc(C(=O)O)ccc1NC(=O)c1ccc(NC(=O)c2ccc(N)cc2)c(OC(C)C)c1O` [Compound 10, cystobactamid 507]: the minimum inhibitory concentration (MIC) (in the assay with E. coli KCTC 1682 (setting [9]); in the assay with E. coli KCTC 1682 (setting [10]); in assay [1]; with E. coli CCARM 1356; in the assay on QRSA CCARM 3505; in assay [2]) was > 32 µg/mL each time. Besides, the MIC (in assay [3]; against MRSA CCARM 3167; in assay [4]; with MRSA CCARM 3506; with QRSA CCARM 3519; in [5]) was > 32 µg/mL each time. Further, the MIC in [7] is > 32 µg/mL. Besides, the IC50 on E. coli DNA gyrase (setting [11]) is > 300 µM; on DNA gyrase, 20.2 µM. Besides, the antibacterial activity result in assay [6] (in words) is recorded as “weak antibacterial activity”. Moreover, the “MICs against Gram-negative and Gram-positive bacteria” value in [6] (reported range) is 4 to 65 µg/mL.
In the case of `CO[C@@H](C(=O)O)[C@H](NC(=O)c1ccc(NC(=O)c2ccc([N+](=O)[O-])cc2)cc1)C(=O)Nc1ccc(C(=O)Nc2ccc(C(=O)Nc3ccc(C(=O)O)cc3OC(C)C)c(O)c2OC(C)C)cc1` [Compound 1, Coralmycin C], the minimum inhibitory concentration (MIC) was > 32 µg/mL with E. coli KCTC 1682 (setting [9]); > 32 µg/mL with E. coli KCTC 1682 (setting [10]); > 32 µg/mL in [1]; > 32 µg/mL in the assay with E. coli CCARM 1356; 4 µg/mL (≈ 4.34 µM) in the assay on QRSA CCARM 3505; > 32 µg/mL in assay [2]. Besides, the MIC was > 32 µg/mL in [3]; 4 µg/mL (≈ 4.34 µM) in the assay with MRSA CCARM 3167; 8 µg/mL (≈ 8.69 µM) in assay [4]; 4 µg/mL (≈ 4.34 µM) against MRSA CCARM 3506; 4 µg/mL (≈ 4.34 µM) in the assay on QRSA CCARM 3519; 4 µg/mL (≈ 4.34 µM) in assay [5]. Also, the MIC in assay [7] is 4 µg/mL (≈ 4.34 µM). Further, the “antibacterial activity against Gram-negative bacteria” value with Gram-negative bacteria is recorded as “no antibacterial activity”. The IC50 at E. coli DNA gyrase (setting [11]) is 0.42 µM.
On to `CO[C@@H](C(N)=O)[C@H](NC(=O)c1ccc(N)cc1)C(=O)Nc1ccc(C(=O)Nc2ccc(C(=O)Nc3ccc(C(=O)O)cc3OC(C)C)c(O)c2OC(C)C)cc1` [Compound 3, Coralmycin E], for which the MIC (in the assay on E. coli KCTC 1682 (setting [9]); in the assay on E. coli KCTC 1682 (setting [10]); in assay [1]; in the assay on E. coli CCARM 1356; in the assay with QRSA CCARM 3505; in [2]) was > 32 µg/mL in each case. The MIC (in assay [3]; in the assay on MRSA CCARM 3167; in assay [4]; with MRSA CCARM 3506; in the assay with QRSA CCARM 3519; in assay [5]) was > 32 µg/mL each time. Moreover, in assay [7], the minimal inhibitory concentration (MIC) is > 32 µg/mL. Moreover, the IC50 on E. coli DNA gyrase (setting [11]) worked out at 39.1 µM. Also, in the assay with tested bacterial strains, the “antibacterial activities against any of the tested bacterial strains” value is on record as “no antibacterial activities”.
For `CO[C@@H](C(N)=O)[C@H](NC(=O)c1ccc(NC(=O)c2ccc([N+](=O)[O-])cc2)cc1)C(=O)Nc1ccc(C(=O)Nc2ccc(C(=O)Nc3ccc(C(=O)O)c(O)c3OC(C)C)c(O)c2OC(C)C)cc1` [Compound 12, coralmycin A, reference compound], in assay [8], the “antibacterial activity relative to 11 (times higher)” value was 10 times. The MIC with E. coli KCTC 1682 (setting [9]) worked out at 0.125 µg/mL (≈ 0.134 µM); with E. coli KCTC 1682 (KCTC1682, 24 h, Table 7, read-out: MIC, antibacterial activity on E. coli KCTC 1682), 0.25 µg/mL (≈ 0.267 µM); in assay [1] it was 4 µg/mL (≈ 4.27 µM); in the assay on E. coli CCARM 1356 it was 0.125 µg/mL (≈ 0.134 µM); with QRSA CCARM 3505, 0.125 µg/mL (≈ 0.134 µM); in assay [2], 2 µg/mL (≈ 2.14 µM). The MIC in [3] was found to be 0.125 µg/mL (≈ 0.134 µM); against MRSA CCARM 3167, 0.015 µg/mL (≈ 0.016 µM); in assay [4], 0.03 µg/mL (≈ 0.0321 µM); against MRSA CCARM 3506, 0.015 µg/mL (≈ 0.016 µM); in the assay on QRSA CCARM 3519, 0.25 µg/mL (≈ 0.267 µM); in assay [5] it was 0.25 µg/mL (≈ 0.267 µM). The same compound registered a minimum inhibitory concentration (MIC) in assay [7] of 0.015 µg/mL (≈ 0.016 µM). At E. coli DNA gyrase (setting [11]), the concentration for half-maximal inhibition (IC50) stood at 0.08 µM.
In the case of `CCOc1cc(C(=O)O)ccc1NC(=O)c1ccc(NC(=O)c2ccc(N)cc2)c(OCC)c1O` [Compound 4, Coralmycin F], the MIC (in the assay with E. coli KCTC 1682 (setting [9]); in the assay with E. coli KCTC 1682 (setting [10]); in assay [1]; with E. coli CCARM 1356; in the assay with QRSA CCARM 3505; in [2]) was > 32 µg/mL each time. The MIC (in [3]; against MRSA CCARM 3167; in [4]; in the assay on MRSA CCARM 3506; with QRSA CCARM 3519; in assay [5]) was > 32 µg/mL in each case. Besides, the minimum inhibitory concentration (MIC) in assay [7] was > 32 µg/mL. The IC50 on E. coli DNA gyrase was > 300 µM.
